pEC50, pIC50: −log10 of the molar value. Converted amounts (≈) assume the structure as drawn.
What was measured:
Plasmodium falciparum [1] = test: Antimalarial activity against Plasmodium falciparum 3D7 assessed as parasite growth inhibition; assay type: functional, organism-based
Plasmodium falciparum [2] = test: Antimalarial activity against Plasmodium falciparum K1 assessed as parasite growth inhibition; assay type: functional, organism-based
Plasmodium falciparum [3] = test: Antiplasmodial activity against Plasmodium falciparum K1 at asexual stage assessed as parasite growth inhibition; assay type: functional, organism-based
Plasmodium falciparum [4] = test: Antiplasmodial activity against CQ-sensitive Plasmodium falciparum NF54 at asexual stage assessed as parasite growth inhibition; assay type: functional, organism-based
Plasmodium falciparum [5] = test: Antimalarial activity against CQ-resistant Plasmodium falciparum W2 assessed as parasite growth inhibition by LDH assay; assay type: functional, organism-based
Plasmodium falciparum [6] = test: Antimalarial activity against CQ-sensitive Plasmodium falciparum D6 assessed as parasite growth inhibition by LDH assay; assay type: functional, organism-based
Plasmodium falciparum [7] = test: Antimalarial activity against CQ-resistant Plasmodium falciparum RKL9 infected in O+ human RBCs assessed as parasite growth inhibition by SYBR Green I staining based assay; assay type: functional, organism-based; details: RKL9, Erythrocyte
Plasmodium falciparum [8] = test: Antimalarial activity against CQ-sensitive Plasmodium falciparum 3D7 infected in O+ human RBCs assessed as parasite growth inhibition by SYBR Green I staining based assay; assay type: functional, organism-based; details: 3D7, Erythrocyte
Plasmodium falciparum [9] = test: Antimalarial activity against Plasmodium falciparum D6; assay type: functional, organism-based
Plasmodium falciparum [10] = test: Antimalarial activity against Plasmodium falciparum W2; assay type: functional, organism-based
Plasmodium falciparum [11] = test: Antimalarial activity against Plasmodium falciparum 3D7 assessed as inhibition of parasite proliferation; assay type: functional, organism-based
Plasmodium falciparum [12] = test: Antimalarial activity against CQ-resistant Plasmodium falciparum K1 infected in human O+ erythrocytes assessed as parasite growth inhibition incubated for 48 hrs by SYBR Green I staining based analysis; assay type: functional, organism-based; details: K1, Erythrocyte
Plasmodium falciparum [13] = test: Antimalarial activity against CQ-sensitive Plasmodium falciparum 3D7 infected in human O+ erythrocytes assessed as parasite growth inhibition incubated for 48 hrs by SYBR Green I staining based analysis; assay type: functional, organism-based; details: 3D7, Erythrocyte
Plasmodium falciparum [14] = test: Antimalarial activity against Plasmodium falciparum W2 assessed as parasite growth inhibition; assay type: functional, organism-based
Plasmodium falciparum [15] = test: Antimalarial activity against Plasmodium falciparum NF54 infected in human erythrocytes assessed as inhibition of parasitemia by giemsa staining based analysis; assay type: functional, organism-based; details: NF54, Erythrocyte
Plasmodium falciparum [16] = test: Antimalarial activity against Plasmodium falciparum 3D7 at asexual stage infected in erythrocytes assessed as parasite growth inhibition incubated for 72 hrs by MSF assay; assay type: functional, organism-based; details: 3D7, Erythrocyte
[17] = Cytotoxicity against African green monkey Vero cells after 72 hrs by MTT assay; assay type: toxicity, cell-based; details: chlorocebus sabaeus
Plasmodium falciparum [18] = test: Antimalarial activity against Plasmodium falciparum 3D7 by SYBR green dye based analysis; assay type: functional, organism-based
Plasmodium falciparum [19] = test: Antiplasmodial activity against CQ-resistant Plasmodium falciparum W2 assessed as parasite growth inhibition incubated for 72 hrs by SYBR Green I staining based analysis; assay type: functional, organism-based; details: W2, 72 h
[20] = Cytotoxicity against African green monkey Vero cells assessed as cell growth inhibition incubated for 24 hrs by fluorescence based assay; assay type: toxicity; details: African green monkey (Chlorocebus sabaeus)
Plasmodium falciparum [21] = test: Antiplasmodial activity against CQ-susceptible Plasmodium falciparum 3D7 assessed as parasite growth inhibition incubated for 72 hrs by SYBR Green I staining based analysis; assay type: functional, organism-based; details: 3D7, 72 h
Plasmodium falciparum [22] = test: Antimalarial activity against CQ-sensitive Plasmodium falciparum 3D7 at trophozoite stage infected in O+ human erythrocytes assessed as parasite growth inhibition in presence of 2.97 uM thiamine by SYBR staining based analysis; assay type: functional, organism-based; details: 3D7, Erythrocyte
Plasmodium falciparum [23] = test: Antimalarial activity against CQ-sensitive Plasmodium falciparum 3D7 at trophozoite stage infected in O+ human erythrocytes assessed as parasite growth inhibition in presence of 297 uM thiamine by SYBR staining based analysis; assay type: functional, organism-based; details: 3D7, Erythrocyte
[24] = Cytotoxicity against human Huh-7 cells by MTT assay; assay type: toxicity, cell-based
Plasmodium falciparum [25] = test: Antiplasmodial activity against Plasmodium falciparum 3D7 at asexual erythrocytic stage infected in human erythrocytes assessed as parasite growth inhibition incubated for 42 hrs by [3H]-hypoxanthine incorporation assay; assay type: functional, organism-based; details: 3D7, Erythrocyte
[26] = Inhibition of Plasmodium falciparum SR21
Plasmodium falciparum [27] = test: Antimalarial activity against Plasmodium falciparum 3D7 assessed as inhibition of parasitemia incubated for 72 hrs by fluorescence based assay; assay type: functional, organism-based; details: 3D7, 72 h
Plasmodium falciparum [28] = test: Antimalarial activity against Plasmodium falciparum 3D7 infected in A+ human erythrocytes assessed as reduction in parasite growth incubated for 72 hrs by SYBR Green I staining based analysis; assay type: functional, organism-based; details: 3D7, Erythrocyte
[29] = Cytotoxicity against human erythrocytes; assay type: toxicity, cell-based, Erythrocyte
Plasmodium knowlesi = test: Antimalarial activity against Plasmodium knowlesi A1H1; assay type: functional, organism-based
Plasmodium falciparum [30] = test: Antimalarial activity against Plasmodium falciparum Dd2 infected in A+ human erythrocytes assessed as reduction in parasite growth incubated for 72 hrs by SYBR Green I staining based analysis; assay type: functional, organism-based; details: Dd2, Erythrocyte
Plasmodium falciparum [31] = test: Antiplasmodial activity against CQ-sensitive Plasmodium falciparum NF54 at asexual erythrocyte stage by LDH assay; assay type: functional, organism-based
Plasmodium falciparum [32] = test: Antiplasmodial activity against CQ-resistant Plasmodium falciparum K1 at asexual erythrocyte stage by LDH assay; assay type: functional, organism-based

COc1cc(/C=C/C(=O)c2ccc(Cl)cc2)ccc1OCc1cn(-c2ccnc3cc(Cl)ccc23)nn1
pIC50 (Plasmodium falciparum [1]): 5.39 | pIC50 (Plasmodium falciparum [2]): 5.45

COC(=O)C1=C(Cn2cc(CNc3ccnc4cc(Cl)ccc34)nn2)NC(=O)NC1c1ccc(OC)cc1 (stereo not given)
pIC50 (Plasmodium falciparum [3]): 6.25 | pIC50 (Plasmodium falciparum [4]): 6.61

O=C1c2nnn(Cc3cccc(F)c3)c2C(=O)c2nnn(Cc3cccc(F)c3)c21
pIC50 (Plasmodium falciparum [5]): 6.23 | pIC50 (Plasmodium falciparum [6]): 6.17

Cc1ccccc1C(=O)/C=C/c1cn(Cc2cn(-c3ccnc4cc(Cl)ccc34)nn2)c2ccccc12
pIC50 (Plasmodium falciparum [7]): 5.57 | pIC50 (Plasmodium falciparum [8]): 5.74

CCCCCCCCCn1cc(C(=O)OC)nn1
pIC50 (Plasmodium falciparum [9]): 4.95 | pIC50 (Plasmodium falciparum [10]): 5.18

CC(C)(CO)[C@@H](O)C(=O)NCCc1cn(CCc2ccccc2)nn1
pIC50 (Plasmodium falciparum [11]): 5.27

CCCCCn1nncc1CNC(=O)[C@H](O)C(C)(C)CO
pIC50 (Plasmodium falciparum [11]): 4.44

Clc1ccc2c(-c3cn(CC(c4ccccc4)c4ccccc4)nn3)ccnc2c1
pIC50 (Plasmodium falciparum [12]): 4.14 | pIC50 (Plasmodium falciparum [13]): 4.04

C=C[C@H]1CN2CC[C@H]1C[C@H]2[C@H](c1ccnc2ccccc12)n1cc(CCC)nn1
pIC50 (Plasmodium falciparum [14]): 5.70

Clc1ccc2c(Nc3nc[nH]n3)cccc2c1
pIC50 (Plasmodium falciparum [15]): 4.37

CC(C)(C)c1ccc(Cn2cc(-c3cccc4ccccc34)nn2)cc1
pIC50 (Plasmodium falciparum [12]): 4.37 | pIC50 (Plasmodium falciparum [13]): 4.43

O=C(Cn1cc(-c2ccccc2)nn1)NCCCNc1ccnc2cc(Cl)ccc12
pIC50 (Plasmodium falciparum [16]): 6.86

O=C(Cn1cc(COc2ccc(Br)cc2)nn1)NCCNc1ccnc2cc(Cl)ccc12
pIC50 (Plasmodium falciparum [16]): 7.40 | CC50 at 72 h [17]: 28.9 µM

C=C[C@H]1CN2CC[C@H]1C[C@H]2[C@H](c1ccnc2ccccc12)n1cc(-c2ccccc2)nn1
pIC50 (Plasmodium falciparum [14]): 5.33

CCOC(=O)c1n[nH]c(-c2ccccn2)n1
pIC50 (Plasmodium falciparum [18]): 3.75

COC(=O)C1=C(Cn2cc(CNc3ccnc4cc(Cl)ccc34)nn2)N(C)C(=O)NC1c1ccc(F)cc1 (stereo not given)
pIC50 (Plasmodium falciparum [3]): 6.30 | pIC50 (Plasmodium falciparum [4]): 6.86

O=C(Cn1cc(COc2ccc(Br)cc2)nn1)NCCCNc1ccnc2cc(Cl)ccc12
CC50 at 72 h [17]: 27.1 µM

O=C1c2nnn(Cc3cccc([N+](=O)[O-])c3)c2C(=O)c2nnn(Cc3cccc([N+](=O)[O-])c3)c21
pIC50 (Plasmodium falciparum [5]): 5.54 | pIC50 (Plasmodium falciparum [6]): 5.72

OB1OCc2cc(OCc3cn(CCN4CCN(c5ccnc6cc(Cl)ccc56)CC4)nn3)ccc21
pIC50 (Plasmodium falciparum [19]): 5.31 | IC50 at 24 h [20]: 82.4 µM | pIC50 (Plasmodium falciparum [21]): 5.27

COC(=O)C1=C(Cn2cc(CNc3ccnc4cc(Cl)ccc34)nn2)N(C)C(=O)NC1c1ccc(OC)cc1 (stereo not given)
pIC50 (Plasmodium falciparum [3]): 6.38 | pIC50 (Plasmodium falciparum [4]): 6.74

C[C@@H]1CC[C@H]2[C@@H](C)C(=O)O[C@@H]3O[C@@]4(C)CC[C@@H]1[C@]32OO4 [ARTEMISININ]
pIC50 (Plasmodium falciparum [10]): 7.03

COC(=O)C1=C(Cn2cc(CNc3ccnc4cc(Cl)ccc34)nn2)NC(=O)NC1c1ccc(F)cc1 (stereo not given)
pIC50 (Plasmodium falciparum [3]): 6.26 | pIC50 (Plasmodium falciparum [4]): 6.66

OB1OCc2cc(OCc3cn(CCNc4ccnc5cc(Cl)ccc45)nn3)ccc21
pIC50 (Plasmodium falciparum [19]): 5.42 | IC50 at 24 h [20]: > 100 µM | pIC50 (Plasmodium falciparum [21]): 5.38

COc1ccccc1C(=O)/C=C/c1cn(Cc2cn(-c3ccnc4cc(Cl)ccc34)nn2)c2ccccc12
pIC50 (Plasmodium falciparum [7]): 5.45 | pIC50 (Plasmodium falciparum [8]): 5.61

CCCCCCCn1cc(CO)nn1
pIC50 (Plasmodium falciparum [9]): 4.88 | pIC50 (Plasmodium falciparum [10]): 5.18

COC(=O)c1ccccc1-c1ccc(Cn2cc(-c3cncc4ccccc34)nn2)cc1
pIC50 (Plasmodium falciparum [12]): 4.28 | pIC50 (Plasmodium falciparum [13]): 4.45

OB1OCc2cc(OCc3cn(-c4ccnc5ccc(Cl)cc45)nn3)ccc21
pIC50 (Plasmodium falciparum [19]): 5.28 | pIC50 (Plasmodium falciparum [21]): 5.31

O=C1c2nnn(Cc3cccc(Cl)c3)c2C(=O)c2nnn(Cc3cccc(Cl)c3)c21
pIC50 (Plasmodium falciparum [5]): 5.12 | pIC50 (Plasmodium falciparum [6]): 5.20

CCCn1cc(CCNC(=O)[C@H](O)C(C)(C)CO)nn1
pIC50 (Plasmodium falciparum [11]): 5.28

C=C[C@H]1CN2CC[C@H]1C[C@H]2[C@H](c1ccnc2ccccc12)n1cc(CO)nn1
pIC50 (Plasmodium falciparum [14]): 5.17

CCCCCc1cn(CCNC(=O)[C@H](O)C(C)(C)CO)nn1
pIC50 (Plasmodium falciparum [11]): 5.07

O=C(Cn1cc(COc2ccc(Cl)cc2)nn1)NCCNc1ccnc2cc(Cl)ccc12
pIC50 (Plasmodium falciparum [16]): 7.40 | CC50 at 72 h [17]: 86.8 µM

Cc1ncc(Cn2cc(CCOC(=O)c3cccc(Cl)c3)nn2)c(N)n1
pIC50 (Plasmodium falciparum [22]): 4.21 | pIC50 (Plasmodium falciparum [23]): 4.10

Cc1cccc(Cn2nnc3c2C(=O)c2nnn(Cc4cccc(C)c4)c2C3=O)c1
pIC50 (Plasmodium falciparum [5]): 5.18 | pIC50 (Plasmodium falciparum [6]): 5.08

Cc1cc(C)nc(NS(=O)(=O)c2ccc(-n3cc(COc4ccc([N+](=O)[O-])cc4)nn3)cc2)n1
CC50 [24]: 7.5 µg/mL (≈ 15.6 µM) | IC50 (Plasmodium falciparum [25]): 6.2 µg/mL (≈ 12.9 µM)

Clc1cc(Cl)cc(-n2cc(/C=N/Nc3ccc(Br)cc3)nn2)c1
pIC50 [26]: 4.91 | pIC50 (Plasmodium falciparum [27]): 4.53

C=C[C@H]1CN2CC[C@H]1C[C@H]2[C@H](c1ccnc2ccccc12)n1cc(C(C)(C)O)nn1
pIC50 (Plasmodium falciparum [14]): 5.59

O/N=C/c1cn(-c2ccc(Cl)cc2)nn1
pIC50 [26]: 6.05 | pIC50 (Plasmodium falciparum [27]): 5.18

COc1cc(/C=C/C(=O)c2cc3ccccc3oc2=O)ccc1OCc1cn(-c2ccnc3cc(Cl)ccc23)nn1
pIC50 (Plasmodium falciparum [1]): < 5.30 | pIC50 (Plasmodium falciparum [2]): < 5.30

Clc1cccc(-n2cc(-c3cncc4ccccc34)nn2)c1
pIC50 (Plasmodium falciparum [12]): 4.02 | pIC50 (Plasmodium falciparum [13]): 3.44

Cc1ncc(Cn2cc(CCOC(=O)c3ccccc3)nn2)c(N)n1
pIC50 (Plasmodium falciparum [23]): < 3.70

CCN(CC)CCCC(C)Nc1ccnc2cc(Cl)ccc12 (stereo not given) [CHLOROQUINE]
pEC50 (Plasmodium falciparum [28]): 7.90 | CC50 [29]: > 100 µg/mL | pEC50 (Plasmodium knowlesi): 6.68 | CC50 at 72 h [17]: 112 µM | pEC50 (Plasmodium falciparum [30]): 6.78

C=C[C@H]1CN2CC[C@H]1C[C@H]2[C@H](c1ccnc2ccccc12)n1cc(C(C)(C)N)nn1
pIC50 (Plasmodium falciparum [14]): 5.34

CCCCCn1nncc1CCNC(=O)[C@H](O)C(C)(C)CO
pIC50 (Plasmodium falciparum [11]): < 4.00

CCCCn1cc(CCNC(=O)[C@H](O)C(C)(C)CO)nn1
pIC50 (Plasmodium falciparum [11]): 5.48

Clc1ccc2c(NCCn3cc(-c4ccnc(-c5ccccn5)c4)nn3)ccnc2c1
pIC50 (Plasmodium falciparum [31]): 7.01 | pIC50 (Plasmodium falciparum [32]): 6.56

O=C1CC(c2n[nH]c(=S)n2-c2ccccc2)CN1Cc1ccccc1 (stereo not given)
pEC50 (Plasmodium knowlesi): 4.54

CCCCCCCCCC(=O)OCc1cn(-c2ccc(Cl)cc2)nn1
pIC50 [26]: 5.81 | pIC50 (Plasmodium falciparum [27]): 5.55

Clc1ccc(-n2cc(-c3cncc4ccccc34)nn2)cc1
pIC50 (Plasmodium falciparum [12]): 5.34 | pIC50 (Plasmodium falciparum [13]): 4.43

— ChEMBL document CHEMBL5512597, “Triazole hybrid compounds: A new frontier in malaria treatment” (Eur J Med Chem, 2023)
